Reference: US9452986B2, “6-heteroaryloxy- or 6-aryloxy-quinoline-2-carboxamides and method of use” (AbbVie Inc., priority 2014, dated 2016)

target: recombinant human Nav1.7 (Homo sapiens (Human), UniProt Q15858); experiment: FRET-based membrane potential assay, recombinant human sodium channel Nav1.7; format: cell-based; conditions: HEK293 cells stably expressing recombinant human Nav1.7; veratridine + scorpion venom depolarization; read-out: FRET-Membrane Potential Nav1.7 IC50
Procedure, shortened: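 Channel activation used veratridine at its EC80, set by a dilution curve each experiment, together with Leiurus scorpion venom, added 3 min after compound. Membrane-potential ratio signals from FLIPR Tetra in HEPES-buffered HBSS were fitted to a four-parameter Hill equation for percent inhibition and IC50.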

Chain of recombinant human Nav1.7 (Q15858 whole entry): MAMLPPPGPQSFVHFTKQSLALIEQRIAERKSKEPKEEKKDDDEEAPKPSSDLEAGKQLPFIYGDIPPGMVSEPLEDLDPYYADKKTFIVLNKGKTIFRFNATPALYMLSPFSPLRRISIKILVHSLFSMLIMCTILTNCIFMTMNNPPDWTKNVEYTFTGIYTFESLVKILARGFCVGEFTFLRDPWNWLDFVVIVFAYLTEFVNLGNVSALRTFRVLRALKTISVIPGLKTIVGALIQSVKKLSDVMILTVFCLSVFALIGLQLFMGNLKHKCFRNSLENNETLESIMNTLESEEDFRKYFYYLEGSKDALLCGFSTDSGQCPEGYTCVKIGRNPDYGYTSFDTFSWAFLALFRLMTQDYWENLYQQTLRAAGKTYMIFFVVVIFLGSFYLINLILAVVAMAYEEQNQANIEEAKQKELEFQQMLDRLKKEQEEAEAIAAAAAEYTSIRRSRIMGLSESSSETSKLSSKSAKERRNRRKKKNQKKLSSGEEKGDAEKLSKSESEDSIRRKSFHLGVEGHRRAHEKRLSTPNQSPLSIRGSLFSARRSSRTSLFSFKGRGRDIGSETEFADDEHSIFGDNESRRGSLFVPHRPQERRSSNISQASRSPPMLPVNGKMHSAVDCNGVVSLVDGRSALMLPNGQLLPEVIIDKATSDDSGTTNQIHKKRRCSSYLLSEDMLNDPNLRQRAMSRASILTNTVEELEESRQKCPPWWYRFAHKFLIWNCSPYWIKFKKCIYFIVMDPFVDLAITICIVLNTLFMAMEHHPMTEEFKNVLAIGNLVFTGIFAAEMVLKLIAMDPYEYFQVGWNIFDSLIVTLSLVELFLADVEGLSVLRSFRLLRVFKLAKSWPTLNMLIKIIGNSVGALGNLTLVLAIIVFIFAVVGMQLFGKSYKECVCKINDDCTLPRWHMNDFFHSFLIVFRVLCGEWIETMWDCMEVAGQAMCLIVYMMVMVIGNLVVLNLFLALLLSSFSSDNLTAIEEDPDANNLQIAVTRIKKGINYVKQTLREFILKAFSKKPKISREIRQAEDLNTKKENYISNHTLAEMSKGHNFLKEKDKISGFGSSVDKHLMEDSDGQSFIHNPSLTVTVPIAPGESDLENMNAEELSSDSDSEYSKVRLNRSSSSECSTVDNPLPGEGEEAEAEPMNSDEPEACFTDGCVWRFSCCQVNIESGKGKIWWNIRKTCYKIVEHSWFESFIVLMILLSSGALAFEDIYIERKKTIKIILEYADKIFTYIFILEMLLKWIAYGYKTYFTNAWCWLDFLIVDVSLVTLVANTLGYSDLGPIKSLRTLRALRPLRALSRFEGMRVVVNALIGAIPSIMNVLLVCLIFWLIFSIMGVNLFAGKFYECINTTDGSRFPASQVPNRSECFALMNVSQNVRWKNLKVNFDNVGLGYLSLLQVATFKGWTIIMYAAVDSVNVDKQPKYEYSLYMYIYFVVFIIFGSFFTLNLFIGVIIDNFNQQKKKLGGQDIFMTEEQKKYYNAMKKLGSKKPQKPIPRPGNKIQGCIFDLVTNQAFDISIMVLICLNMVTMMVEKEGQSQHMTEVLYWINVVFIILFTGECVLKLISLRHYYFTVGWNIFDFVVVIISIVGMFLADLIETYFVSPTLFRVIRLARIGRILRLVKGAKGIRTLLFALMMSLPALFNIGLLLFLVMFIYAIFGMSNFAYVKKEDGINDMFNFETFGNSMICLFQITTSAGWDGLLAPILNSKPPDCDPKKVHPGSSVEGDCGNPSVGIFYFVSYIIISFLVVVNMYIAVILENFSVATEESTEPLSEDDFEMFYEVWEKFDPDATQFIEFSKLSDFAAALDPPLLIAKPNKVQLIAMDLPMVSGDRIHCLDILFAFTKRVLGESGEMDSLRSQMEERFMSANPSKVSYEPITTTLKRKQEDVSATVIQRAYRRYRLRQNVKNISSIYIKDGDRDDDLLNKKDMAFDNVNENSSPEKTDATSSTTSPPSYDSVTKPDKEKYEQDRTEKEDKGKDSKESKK

SMILES | IC50
CN1CCN(C(=O)c2ccc3cc(Oc4ccc(C(F)(F)F)cn4)ccc3n2)CC1=O [Example 450, 1-methyl-4-[(6-{[5-(trifluoromethyl)pyridin-2-yl]oxy}quinolin-2-yl)carbonyl]piperazin-2-one] | 3.58 µM
CN(C)C(=O)[C@@H]1CCCN1C(=O)c1ccc2cc(Oc3ccc(C(F)(F)F)cn3)ccc2n1 [Example 451, N,N-dimethyl-1-[(6-{[5-(trifluoromethyl)pyridin-2-yl]oxy}quinolin-2-yl)carbonyl]-L-prolinamide] | 5.23 µM
CN(CC(=O)NC1CC1)C(=O)c1ccc2cc(Oc3ccc(C(F)(F)F)cn3)ccc2n1 [Example 452, N-[2-(cyclopropylamino)-2-oxoethyl]-N-methyl-6-{[5-(trifluoromethyl)pyridin-2-yl]oxy}quinoline-2-carboxamide] | 3.21 µM
CCN(CC)C(=O)CCNC(=O)c1ccc2cc(Oc3ccc(C(F)(F)F)cn3)ccc2n1 [Example 453, N-[3-(diethylamino)-3-oxopropyl]-6-{[5-(trifluoromethyl)pyridin-2-yl]oxy}quinoline-2-carboxamide] | 0.405 µM
CC(C)NC(=O)CN(C)C(=O)c1ccc2cc(Oc3ccc(C(F)(F)F)cn3)ccc2n1 [Example 454, N-[2-(isopropylamino)-2-oxoethyl]-N-methyl-6-{[5-(trifluoromethyl)pyridin-2-yl]oxy}quinoline-2-carboxamide] | 3.14 µM
O=C(NCC(=O)N1CCCC1)c1ccc2cc(Oc3ccc(C(F)F)cn3)ccc2n1 [Example 456, 6-{[5-(difluoromethyl)pyridin-2-yl]oxy}-N-[2-oxo-2-(pyrrolidin-1-yl)ethyl]quinoline-2-carboxamide] | 0.886 µM
COCCNC(=O)CN(C)C(=O)c1ccc2cc(Oc3ccc(C(F)F)cn3)ccc2n1 [Example 457, 6-{[5-(difluoromethyl)pyridin-2-yl]oxy}-N-{2-[(2-methoxyethyl)amino]-2-oxoethyl}-N-methylquinoline-2-carboxamide] | > 20 µM
O=C(NCC(=O)N1CCOCC1)c1ccc2cc(Oc3ccc(C(F)F)cn3)ccc2n1 [Example 458, 6-{[5-(difluoromethyl)pyridin-2-yl]oxy}-N-[2-(morpholin-4-yl)-2-oxoethyl]quinoline-2-carboxamide] | 1.19 µM
O=C(NCCC(=O)N1CCOCC1)c1ccc2cc(Oc3ccc(C(F)F)cn3)ccc2n1 [Example 459, 6-{[5-(difluoromethyl)pyridin-2-yl]oxy}-N-[3-(morpholin-4-yl)-3-oxopropyl]quinoline-2-carboxamide] | 8.69 µM
O=C(NCCC(=O)N1CCCC1)c1ccc2cc(Oc3ccc(C(F)F)cn3)ccc2n1 [Example 460, 6-{[5-(difluoromethyl)pyridin-2-yl]oxy}-N-[3-oxo-3-(pyrrolidin-1-yl)propyl]quinoline-2-carboxamide] | 2.4 µM
CCN(CC)C(=O)CNC(=O)c1ccc2cc(Oc3ccc(C(F)F)cn3)ccc2n1 [Example 461, N-[2-(diethylamino)-2-oxoethyl]-6-{[5-(difluoromethyl)pyridin-2-yl]oxy}quinoline-2-carboxamide] | 0.354 µM
O=C(NCCC(=O)N1CCCCC1)c1ccc2cc(Oc3ccc(C(F)F)cn3)ccc2n1 [Example 463, 6-{[5-(difluoromethyl)pyridin-2-yl]oxy}-N-[3-oxo-3-(piperidin-1-yl)propyl]quinoline-2-carboxamide] | 1.12 µM
CN1CCN(C(=O)c2ccc3cc(Oc4ccc(C(F)F)cn4)ccc3n2)CC1=O [Example 464, 4-[(6-{[5-(difluoromethyl)pyridin-2-yl]oxy}quinolin-2-yl)carbonyl]-1-methylpiperazin-2-one] | > 20 µM
CN(C)C(=O)[C@@H]1CCCN1C(=O)c1ccc2cc(Oc3ccc(C(F)F)cn3)ccc2n1 [Example 465, 1-[(6-{[5-(difluoromethyl)pyridin-2-yl]oxy}quinolin-2-yl)carbonyl]-N,N-dimethyl-L-prolinamide] | > 20 µM
CN(CC(=O)NC1CC1)C(=O)c1ccc2cc(Oc3ccc(C(F)F)cn3)ccc2n1 [Example 466, N-[2-(cyclopropylamino)-2-oxoethyl]-6-{[5-(difluoromethyl)pyridin-2-yl]oxy}-N-methylquinoline-2-carboxamide] | 9.41 µM
CCN(CC)C(=O)CCNC(=O)c1ccc2cc(Oc3ccc(C(F)F)cn3)ccc2n1 [Example 467, N-[3-(diethylamino)-3-oxopropyl]-6-{[5-(difluoromethyl)pyridin-2-yl]oxy}quinoline-2-carboxamide] | 0.521 µM
CC(C)NC(=O)CN(C)C(=O)c1ccc2cc(Oc3ccc(C(F)F)cn3)ccc2n1 [Example 468, 6-{[5-(difluoromethyl)pyridin-2-yl]oxy}-N-[2-(isopropylamino)-2-oxoethyl]-N-methylquinoline-2-carboxamide] | 13.8 µM
O=C(NCCN1CCNCC1=O)c1ccc2cc(Oc3ccc(C(F)(F)F)cn3)ccc2n1 [Example 469, N-[2-(2-oxopiperazin-1-yl)ethyl]-6-{[5-(trifluoromethyl)pyridin-2-yl]oxy}quinoline-2-carboxamide] | 1.71 µM
O=C(NCC1CNC1)c1ccc2cc(Oc3ccc(C(F)(F)F)cn3)ccc2n1 [Example 470, N-(azetidin-3-ylmethyl)-6-{[5-(trifluoromethyl)pyridin-2-yl]oxy}quinoline-2-carboxamide] | 6.6 µM
CC(C)(O)CNC(=O)c1ccc2cc(Oc3ccc(C(F)(F)F)nc3)ccc2n1 [Example 471, N-(2-hydroxy-2-methylpropyl)-6-{[6-(trifluoromethyl)pyridin-3-yl]oxy}quinoline-2-carboxamide] | 2.4 µM
N#CCCCN1CCN(C(=O)c2ccc3cc(Oc4ccc(C(F)(F)F)cn4)ccc3n2)CC1 [Example 472, 4-{4-[(6-{[5-(trifluoromethyl)pyridin-2-yl]oxy}quinolin-2-yl)carbonyl]piperazin-1-yl}butanenitrile] | 7.76 µM
N#CCCN1CCN(C(=O)c2ccc3cc(Oc4ccc(C(F)(F)F)cn4)ccc3n2)CC1 [Example 473, 3-{4-[(6-{[5-(trifluoromethyl)pyridin-2-yl]oxy}quinolin-2-yl)carbonyl]piperazin-1-yl}propanenitrile] | 16.2 µM
N#CC1CCN(C(=O)c2ccc3cc(Oc4ccc(C(F)(F)F)cn4)ccc3n2)CC1 [Example 474, 1-[(6-{[5-(trifluoromethyl)pyridin-2-yl]oxy}quinolin-2-yl)carbonyl]piperidine-4-carbonitrile] | 9.1 µM
O=C(c1ccc2cc(Oc3ccc(C(F)(F)F)cn3)ccc2n1)N1CC2(C1)OCCO2 [Example 476, 5,8-dioxa-2-azaspiro[3.4]oct-2-yl(6-{[5-(trifluoromethyl)pyridin-2-yl]oxy}quinolin-2-yl)methanone] | 3.92 µM
O=C(N[C@@H]1CS(=O)(=O)C[C@H]1O)c1ccc2cc(Oc3ccc(C(F)F)cn3)ccc2n1 [Example 477, 6-{[5-(difluoromethyl)pyridin-2-yl]oxy}-N-[(3S,4S)-4-hydroxy-1,1-dioxidotetrahydrothiophen-3-yl]quinoline-2-carboxamide] | 5.51 µM
O=C(c1ccc2cc(Oc3ccc(C(F)(F)F)cn3)ccc2n1)N1CC2OCOC2C1 (stereo not drawn) [Example 478, tetrahydro-5H-[1,3]dioxolo[4,5-c]pyrrol-5-yl(6-{[5-(trifluoromethyl)pyridin-2-yl]oxy}quinolin-2-yl)methanone] | 5.94 µM
CS(=O)(=O)C1CN(C(=O)c2ccc3cc(Oc4ccc(C(F)F)cn4)ccc3n2)C1 [Example 479, (6-{[5-(difluoromethyl)pyridin-2-yl]oxy}quinolin-2-yl)[3-(methylsulfonyl)azetidin-1-yl]methanone] | 3.19 µM
CN(C(=O)c1ccc2cc(Oc3ccc(C(F)(F)F)cn3)ccc2n1)C1COC1 [Example 480, N-methyl-N-(oxetan-3-yl)-6-{[5-(trifluoromethyl)pyridin-2-yl]oxy}quinoline-2-carboxamide] | 19.9 µM
O=C(NC1CC[S+]([O-])CC1)c1ccc2cc(Oc3ccc(C(F)F)cn3)ccc2n1 (stereo not drawn) [Example 481, 6-{[5-(difluoromethyl)pyridin-2-yl]oxy}-N-(1-oxidotetrahydro-2H-thiopyran-4-yl)quinoline-2-carboxamide] | 2.63 µM
O=C(NC1CCC(F)(F)C1)c1ccc2cc(Oc3ccc(C(F)(F)F)cn3)ccc2n1 (stereo not drawn) [Example 485, N-(3,3-difluorocyclopentyl)-6-{[5-(trifluoromethyl)pyridin-2-yl]oxy}quinoline-2-carboxamide] | 3.14 µM

same assay, conditions: read-out: FRET-Membrane Potential Nav1.7 IC50

SMILES | IC50
CNC(=O)[C@@H]1CCCN1C(=O)c1ccc2cc(Oc3ccc(C(F)F)cn3)ccc2n1 [Example 455, 1-[(6-{[5-(difluoromethyl)pyridin-2-yl]oxy}quinolin-2-yl)carbonyl]-N-methyl-L-prolinamide] | > 20 µM
CN1CC(NC(=O)c2ccc3cc(Oc4ccc(C(F)F)cn4)ccc3n2)CC1=O (stereo not drawn) [Example 462, 6-{[5-(difluoromethyl)pyridin-2-yl]oxy}-N-(1-methyl-5-oxopyrrolidin-3-yl)quinoline-2-carboxamide] | 0.947 µM
O=C(NC1COC1)c1ccc2cc(Oc3ccc(C(F)F)cn3)ccc2n1 [Example 475, 6-{[5-(difluoromethyl)pyridin-2-yl]oxy}-N-(oxetan-3-yl)quinoline-2-carboxamide] | 1.96 µM
O=C(NCC1COC1)c1ccc2cc(Oc3ccc(C(F)(F)F)cn3)ccc2n1 [Example 482, N-(oxetan-3-ylmethyl)-6-{[5-(trifluoromethyl)pyridin-2-yl]oxy}quinoline-2-carboxamide] | 0.569 µM
N#Cc1ccc(Oc2ccc3nc(C(=O)NC4CCNC(=O)C4)ccc3c2)cc1 (stereo not drawn) [Example 484, 6-(4-cyanophenoxy)-N-(2-oxopiperidin-4-yl)quinoline-2-carboxamide] | 0.879 µM
O=C(NC1CCC(F)(F)C1)c1ccc2cc(Oc3ccc(C(F)F)cn3)ccc2n1 (stereo not drawn) [Example 486, N-(3,3-difluorocyclopentyl)-6-{[5-(difluoromethyl)pyridin-2-yl]oxy}quinoline-2-carboxamide] | 2.54 µM
